# Measurements published in PMC4084896 (PLoS ONE, 2014).
# Tests used:
# [1] = test system: CYP1A1 mRNA; conditions: HepG2, TCDD 5 nM, 24 h, vs vehicle
# [2] = test system: CYP1A1/1A2 catalytic activity (EROD); experiment: EROD assay in primary human hepatocytes; format: cell-based; conditions: culture Hep220774, TCDD 5 nM, 24 h
# Description: Cells were treated for 24 h with tested compounds.
# The cells were treated for 24 h with (+)-KET, (−)-KET and commercial rac-KET (1 µM, 30 µM, 50 µM), and with TCDD (5 nM) and vehicle (DMSO; 0.1% V/V). […] In the cytotoxicity assay, we found all forms of KET highly toxic against human hepatocytes at the concentration 50 µM.
# [3] = test system: CYP1A1 protein; experiment: CYP1A1 protein in primary human hepatocytes (western blot); format: cell-based; conditions: cultures HH52, HH54, Hep220770, 48 h
# Description: Cells were cultured in serum-free medium.
# Total protein extracts were prepared from cells on 6-well plates. Cells were washed twice with ice-cold PBS and scraped into 1 ml of PBS. The suspension was centrifuged (4500 RPM/5 min/4°C) and the pellet was resuspended in 150 µl of ice-cold lysis buffer (150 mM NaCl; 10 mM Tris pH 7.2; 0.1% (w/v) SDS; anti-protease cocktail, 1% (v/v) Triton X-100; anti-phosphatase cocktail, 1% (v/v) sodium deoxycholate; 5 mM EDTA). The mixture was vortexed and incubated for 10 min on ice and then centrifuged (15000 RPM/13 min/4°C). Supernatant was collected and the protein content was determined by the Bradford reagent. SDS–PAGE gels (10%) were run on a BioRad apparatus according to the general procedure followed by the protein transfer onto PVDF membrane. The membrane was saturated with 5% non-fat dried milk for 1 h at room temperature. Blots were probed with primary antibodies against CYP1A1 (goat polyclonal, sc-9828, G-18, dilution 1∶500), CYP1A2 (mouse monoclonal, sc-374228, G-4, dilution 1∶2000), actin (goat polyclonal; sc-1616, 1–19, dilution 1∶2000), all purchased from Santa Cruz Biotechnology (Santa Cruz, CA, USA). Chemiluminescent detection was performed using horseradish peroxidase-conjugated secondary antibodies (Santa Cruz Biotechnology) and Western blotting Luminol kit (Santa Cruz Biotechnology).
# [4] = test system: CYP1A1 mRNA; experiment: in vitro; conditions: human, 24 h
# Excerpt: (§1) Primary human hepatocytes used in this study were obtained from two sources: (i) from multiorgan donors LH52 (female; 60 years) and LH54 (person), when: a) Tissue acquisition protocol was in accordance with the requirements issued by “Ethical Committee of the Faculty Hospital Olomouc, Czech Republic” and with Transplantation law #285/2002 Sb., b) “Ethical Committee of the Faculty Hospital Olomouc, Czech Republic” approved the study and the use of primary human hepatocytes for research presented in the current paper., c) The consent from the next of kin of the donor was waived by “Ethical Committee of the Faculty Hospital Olomouc, Czech Republic”; (ii) long-term human hepatocytes in monolayer Batch HEP220770 (person), Batch HEP220774 (person) (purchased from Biopredic International, Rennes, France). Cells were cultured in serum-free medium. Cultures were maintained at 37°C and 5% CO2 in a humidified incubator.
# (§2) Total RNA was isolated using TRI Reagent (Molecular Research Center, Cincinnati, OH, USA). cDNA was synthesized from 1000 ng of total RNA using M-MLV Reverse Transcriptase (Finnzymes, Espoo, Finland) at 42°C for 60 min in the presence of random hexamers (Takara, Shiga, Japan). qRT-PCR was carried out using LightCycler FastStart DNA MasterPLUS SYBR Green I (Roche Diagnostic Corporation, Prague, Czech Republic) on a Light Cycler 480 II apparatus (Roche Diagnostic Corporation). CYP1A1, CYP1A2, tyrosine aminotransferase (TAT) and GAPDH mRNAs were determined as described previously, [16]. Measurements were performed in triplicates. Gene expression was normalized to GAPDH as a housekeeping gene.
# [5] = test system: CYP1A2 mRNA; experiment: in vitro; conditions: human, 24 h
# Excerpt: as §1, §2
# [6] = biological target: T1, aryl hydrocarbon receptor AhR (Homo sapiens, UniProt P35869); experiment: AhR gene reporter assay in AZ-AHR cells, agonist mode; format: cell-based; conditions: 5 nM TCDD, four passages
# T1 construct: endogenous in cells; host or cells: AZ-AHR (stably transfected reporter line derived from HepG2)
# T1 sequence (P35869 11-848): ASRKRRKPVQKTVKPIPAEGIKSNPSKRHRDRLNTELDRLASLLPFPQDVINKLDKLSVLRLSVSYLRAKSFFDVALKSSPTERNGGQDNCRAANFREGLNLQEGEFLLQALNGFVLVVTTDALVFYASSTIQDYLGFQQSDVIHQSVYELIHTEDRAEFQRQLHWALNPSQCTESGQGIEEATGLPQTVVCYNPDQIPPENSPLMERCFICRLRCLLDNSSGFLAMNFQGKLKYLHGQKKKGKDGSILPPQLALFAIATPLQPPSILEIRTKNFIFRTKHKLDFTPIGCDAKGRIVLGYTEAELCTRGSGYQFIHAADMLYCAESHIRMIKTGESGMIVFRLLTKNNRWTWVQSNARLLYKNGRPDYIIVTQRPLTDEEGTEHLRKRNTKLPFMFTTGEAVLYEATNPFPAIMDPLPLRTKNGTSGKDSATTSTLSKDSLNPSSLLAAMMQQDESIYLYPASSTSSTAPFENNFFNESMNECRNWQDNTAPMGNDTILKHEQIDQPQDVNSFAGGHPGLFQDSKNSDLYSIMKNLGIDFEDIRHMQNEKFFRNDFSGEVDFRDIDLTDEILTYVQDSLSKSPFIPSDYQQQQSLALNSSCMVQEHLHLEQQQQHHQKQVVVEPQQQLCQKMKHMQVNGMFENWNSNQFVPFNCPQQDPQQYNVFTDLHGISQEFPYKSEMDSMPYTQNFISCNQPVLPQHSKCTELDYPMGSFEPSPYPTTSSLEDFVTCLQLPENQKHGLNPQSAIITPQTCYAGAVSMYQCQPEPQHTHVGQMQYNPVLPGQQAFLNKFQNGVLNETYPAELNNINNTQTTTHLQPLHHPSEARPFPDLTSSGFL
# Excerpt: A stably transfected gene reporter cell line AZ-AHR, derived from human hepatoma HepG2 cells transfected with a construct containing several AhR binding sites upstream of a luciferase reporter gene, was used for assessment of AhR transcriptional activity. A stably transfected gene reporter cell line AZ-GR, derived from human cervix carcinoma HeLa cells transfected with a construct containing several GR response elements upstream of a luciferase reporter gene, was used for assessment of GR transcriptional activity. Cells were incubated for 24 h with tested compounds and/or vehicle (DMSO; 0.1% v/v), in the presence or absence of TCDD (5 nM; AZ-AHR cells) or DEX (100 nM; AZ-GR cells). After the treatments, cells were lysed and luciferase activity was measured. In parallel, cell viability was determined by conventional MTT test.
# Gene reporter assays were performed in two different experimental layouts. In agonist mode, cells were treated with increasing concentrations of tested compounds, and the half-maximal effective concentrations (EC50) were calculated.
# [7] = female, culture HH52, TCDD 5 nM
# [8] = female, culture Hep220770, TCDD 5 nM
smiles,measurement,setting,value
"Clc1cc2c(cc1Cl)Oc1cc(Cl)c(Cl)cc1O2 [TCDD, 2,3,7,8-tetrachlorodibenzo-p-dioxin]",CYP1A1 mRNA induction,[1],approximately 500 fold
same,induction of EROD activity,[2],approximately 15 fold
same,CYP1A1 protein induction (in words),[3],drastic increase
same,fold induction,[4]; [7],53
same,fold induction,[4]; [8],1840
same,fold induction,"[4]; male, culture HH54, TCDD 5 nM",101
same,fold induction,[5]; [7],79
same,fold induction,[5]; [8],219
same,fold induction,"[5]; male, culture HH54, TCDD 5 nM",30
same,average induction of AhR-dependent luciferase activity,[6],435 fold
